Experimental data as given in PubChem BioAssay (NCI).
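Step 1: Grow cells in 96-well plates. Step 2: Expose to compound for 48 hours at 5 concentrations. Step 3: Interpolate endpoints linearly; if unreached, use highest concentration. The concentration for full growth arrest is given as TGI.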

Experiments:
Assay in all cases: DTP human tumour cell line panel, 48 h
[1] = test system: 786-0 renal
[2] = test system: A498 renal
[3] = test system: A549 NSCLC
[4] = test system: ACHN renal
[5] = test system: CAKI-1 renal
[6] = test system: CCRF-CEM leukemia
[7] = test system: COLO 205 colon
[8] = test system: DU-145 prostate
[9] = test system: EKVX NSCLC
[10] = test system: HCC-2998 colon
[11] = test system: HCT-116 colon
[12] = test system: HCT-15 colon
[13] = test system: HL-60(TB) leukemia
[14] = test system: HOP-62 NSCLC
[15] = test system: HOP-92 NSCLC
[16] = test system: HS 578T breast
[17] = test system: HT29 colon
[18] = test system: IGROV1 ovarian
[19] = test system: K-562 leukemia
[20] = test system: KM12 colon
[21] = test system: LOX IMVI melanoma
[22] = test system: M14 melanoma
[23] = test system: MALME-3M melanoma
[24] = test system: MDA-MB-231 breast
[25] = test system: MDA-MB-435
[26] = test system: MDA-N
[27] = test system: MOLT-4 leukemia
[28] = test system: NCI-H226 lung
[29] = test system: NCI-H23 lung
[30] = test system: NCI-H460 lung
[31] = test system: NCI-H522 lung
[32] = test system: NCI/ADR-RES ovarian
[33] = test system: OVCAR-3 ovarian
[34] = test system: OVCAR-4 ovarian
[35] = test system: OVCAR-5 ovarian
[36] = test system: OVCAR-8 ovarian
[37] = test system: PC-3 prostate
[38] = test system: RPMI-8226 leukemia
[39] = test system: RXF 393 renal
[40] = test system: SF-268 CNS
[41] = test system: SF-295 CNS
[42] = test system: SF-539 CNS
[43] = test system: SK-MEL-28 melanoma
[44] = test system: SK-MEL-5 melanoma
[45] = test system: SN12C renal
[46] = test system: SNB-19 CNS
[47] = test system: SNB-75 CNS
[48] = test system: SR leukemia
[49] = test system: SW-620 colon
[50] = test system: TK-10 renal
[51] = test system: U251 CNS
[52] = test system: UACC-257 melanoma
[53] = test system: UACC-62 melanoma
[54] = test system: UO-31 renal
[55] = test system: MCF7 breast
[56] = test system: SK-MEL-2 melanoma
[57] = test system: SK-OV-3 ovarian
[58] = test system: T-47D breast

With O=c1c2cc([N+](=O)[O-])ccc2[nH]n1Cc1ccccc1Cl the TGI [1] was over 100 µM, the TGI [2] was over 100 µM and the TGI [3] was over 100 µM. It also gave a TGI [4] of over 100 µM, a TGI [5] of over 100 µM and a TGI [6] of over 100 µM. It also gave a TGI [7] of over 100 µM, a TGI [8] of over 100 µM and a TGI [9] of over 100 µM. It also gave a TGI [10] of over 100 µM, a TGI [11] of over 100 µM and a TGI [12] of over 100 µM. The TGI [13] was over 100 µM, the TGI [14] was over 100 µM and the TGI [15] was 93.9 µM. For the same molecule, the TGI [16] was over 100 µM, the TGI [17] was over 100 µM and the TGI [18] was over 100 µM. The TGI [19] was over 100 µM, the TGI [20] was over 100 µM and the TGI [21] was over 100 µM. For the same molecule, the TGI [22] was over 100 µM, the TGI [23] was over 100 µM and the TGI [24] was over 100 µM. For the same molecule, the TGI [25] was over 100 µM, the TGI [26] was over 100 µM and the TGI [27] was over 100 µM. The TGI [28] was over 100 µM, the TGI [29] was over 100 µM and the TGI [30] was over 100 µM. It also gave a TGI [31] of over 100 µM, a TGI [32] of over 100 µM and a TGI [33] of over 100 µM. The TGI [34] was over 100 µM, the TGI [35] was over 100 µM and the TGI [36] was over 100 µM. It also gave a TGI [37] of over 100 µM, a TGI [38] of 95.2 µM and a TGI [39] of over 100 µM. It also gave a TGI [40] of over 100 µM, a TGI [41] of over 100 µM and a TGI [42] of over 100 µM. For the same molecule, the TGI [43] was over 100 µM, the TGI [44] was over 100 µM and the TGI [45] was over 100 µM. The TGI [46] was over 100 µM, the TGI [47] was over 100 µM and the TGI [48] was over 100 µM. It also gave a TGI [49] of over 100 µM, a TGI [50] of 99.9 µM and a TGI [51] of over 100 µM. For the same molecule, the TGI [52] was over 100 µM, the TGI [53] was over 100 µM and the TGI [54] was over 100 µM.
In the case of CC(=O)/C=C1/C(=O)C(CC(C)C)=C1CC(C)C, the TGI [1] is reported as over 100 µM, the TGI [2] is reported as over 100 µM and the TGI [3] is reported as over 100 µM. For the same molecule, the TGI [4] was over 100 µM, the TGI [5] was over 100 µM and the TGI [6] was over 100 µM. The TGI [7] was over 100 µM, the TGI [8] was over 100 µM and the TGI [9] was over 100 µM. For the same molecule, the TGI [11] was over 100 µM, the TGI [12] was over 100 µM and the TGI [13] was over 100 µM. The TGI [14] was over 100 µM, the TGI [15] was over 100 µM and the TGI [16] was over 100 µM. For the same molecule, the TGI [17] was over 100 µM, the TGI [18] was over 100 µM and the TGI [20] was over 100 µM. It also gave a TGI [21] of over 100 µM, a TGI [22] of over 100 µM and a TGI [23] of over 100 µM. The TGI [55] was over 100 µM, the TGI [24] was over 100 µM and the TGI [25] was over 100 µM. It also gave a TGI [26] of over 100 µM, a TGI [27] of over 100 µM and a TGI [28] of over 100 µM. The TGI [29] was over 100 µM, the TGI [31] was over 100 µM and the TGI [32] was over 100 µM. For the same molecule, the TGI [34] was over 100 µM, the TGI [35] was over 100 µM and the TGI [36] was over 100 µM. For the same molecule, the TGI [37] was over 100 µM, the TGI [39] was over 100 µM and the TGI [40] was over 100 µM. The TGI [41] was over 100 µM, the TGI [42] was over 100 µM and the TGI [56] was over 100 µM. The TGI [43] was over 100 µM, the TGI [44] was over 100 µM and the TGI [57] was over 100 µM. For the same molecule, the TGI [45] was over 100 µM, the TGI [46] was over 100 µM and the TGI [47] was over 100 µM. It also gave a TGI [49] of over 100 µM, a TGI [58] of over 100 µM and a TGI [50] of over 100 µM. It also gave a TGI [51] of over 100 µM, a TGI [52] of over 100 µM and a TGI [53] of over 100 µM. It also gave a TGI [54] of over 100 µM.
